# “Also recorded” adds a separate entry of the source. Where a SMILES comes first, the peptide text is derived from it. Bridges are numbered along the chain shown (N, C = ends). [ ]: non-standard residue; d: D form. S5 = C=CCCC[C@](C)(N)C(=O)O
# Assays:
# [1] = CD spectroscopy, α-helical content of peptides; type: physicochemical; conditions: for helical content, ranking in words: among the peptides tested
# Description: CD spectroscopy. CD spectra were measured with an AVIV stop-flow CD spectropolarimeter at 190 to 250 nm using a cell with a 1 mm path-length. The sample containing […] of synthesized peptides in PBS buffer (137 mM NaCl, 2.7 mM KCl, 10 mM Na2HPO4, and 2 mM KH2PO4, pH 7.4) was measured at 20° C. For the correction of the baseline error, the signal from a blank run with PBS buffer was subtracted from all the experimental spectra. The α-helical content of each peptide was calculated by dividing the mean residue ellipticity [φ]222obs by the reported [φ]222obs for a model helical decapeptide (Yang et al., 1986).
# [2] = biological target: T1, neuronal SNAREs and Syt1_QM (Rattus norvegicus, UniProt P21707, E295A/R281A/R398A/R399A/Y338W); experiment: Single vesicle content mixing assay, neuronal SNAREs and Syt1_QM; type: biochemical; conditions: 10 μM peptide, raw count; for Ca2+ triggered fusion events: 500 μM Ca2+
# T1 construct: made in house
# T1 sequence (P21707 whole entry R281A/E295A/Y338W/R398A/R399A, the tested form may be a part): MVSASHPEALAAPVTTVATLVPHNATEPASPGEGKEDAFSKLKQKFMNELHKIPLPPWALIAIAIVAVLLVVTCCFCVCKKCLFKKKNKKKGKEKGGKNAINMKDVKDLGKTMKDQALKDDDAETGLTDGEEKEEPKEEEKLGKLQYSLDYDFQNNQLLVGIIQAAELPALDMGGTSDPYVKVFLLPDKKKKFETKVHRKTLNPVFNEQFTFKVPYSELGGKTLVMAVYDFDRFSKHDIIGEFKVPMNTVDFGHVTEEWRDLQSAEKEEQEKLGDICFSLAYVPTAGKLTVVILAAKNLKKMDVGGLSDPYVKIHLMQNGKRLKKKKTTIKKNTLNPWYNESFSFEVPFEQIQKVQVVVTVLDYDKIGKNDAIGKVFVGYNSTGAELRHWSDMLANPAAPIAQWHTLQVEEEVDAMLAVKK
# Description: (§1) For single vesicle content mixing assay, the lipid composition of the SV, SG, VAMP2, or VAMP8 vesicles was phosphatidylcholine (PC) (48%), phosphatidylethanolamine (PE) (20%), phosphatidylserine (PS) (12%), and cholesterol (20%); for both the neuronal and airway PM vesicles the lipid composition was Brain Total Lipid Extract supplemented 3.5 mol % PIP2, and 0.1 mol % biotinylated phosphatidylethanolamine (PE).
# (§2) The reconstitution method for neuronal PM and SV vesicles was described in detail previously (see Lai et al., 2017; Kyoung et al., 2011; and Lai et al., 2014). The same methods were used for airway PM, SG, VAMP2, and VAMP8 vesicles. Dried lipid films were dissolved in 110 mM OG buffer containing purified proteins at protein-to-lipid ratios of 1:200 for VAMP2 and Stx1A for SV and neuronal PM vesicles, respectively (or 1:200 for VAMP8 and Stx3 for SG and airway PM vesicles, respectively), and 1:800 for Syt1 for SV vesicles (or 1:1200 for Syt2 for SG vesicles).
# (§3) A 3-5 fold excess of SNAP-25A or SNAP-23 (with respect to Stx1A or Stx3) and 3.5 mol % PIP2 were added to the protein-lipid mixture for neuronal or airway PM vesicles. […] For the preparation of SV, SG, VAMP2, or VAMP8 vesicles for single vesicle content mixing assay, 50 mM sulforhodamine B (Thermo Fisher Scientific) was added to the protein-lipid mixture. The vesicles subsequently formed during size exclusion chromatography using a Sepharose CL-4B column, packed under near constant pressure by gravity with a peristaltic pump (GE Healthcare) in a 5.5 ml column with a ˜5 ml bed volume that was equilibrated with buffer V (20 mM HEPES, pH 7.4, 90 mM NaCl) supplemented with 20 μM EGTA and 0.1% 2-mercaptoethanol. The eluent was subjected to dialysis into 21 of detergent-free buffer V supplemented with 20 μM EGTA, 0.1% 2-mercaptoethanol, 5 g of Bio-beads SM2 (Bio-Rad) and 0.8 g/L Chelex 100 resin (Bio-Rad). After 4 hours, the buffer was exchanged with 21 of fresh buffer V supplemented with 20 μM EGTA, 0.1% 2-mercaptoethanol and Bio-beads, and the dialysis continued for another 12 h (overnight). […] For ensemble lipid mixing assay, the reconstitution method is the same as that for the single vesicle content mixing assay, except that 50 mM sulforhodamine B was omitted for all the steps.
# (§4) Single vesicle content mixing experiments. All single vesicle fusion and single molecule experiments were performed on a prism-type total internal reflection fluorescence (TIRF) microscope using 532 nm (green) laser (CrystaLaser) excitation. Two observation channels were created by a 640 nm single-edge dichroic beamsplitter (FF640-FDi01-25x36, Shemrock): one channel was used for the fluorescence emission intensity of the content dyes and the other channel for that of the Cy5 dye that are part of the injected Ca^2+-solution. The two channels were recorded on two adjacent rectangular areas (45×90 m^2) of a charge-coupled device (CCD) camera (iXon+DV 897E, Andor Technology). The imaging data were recorded with the smCamera software developed by Taekjip Ha, Johns Hopkins University, Baltimore.
# (§5) Flow chambers were assembled by creating a “sandwich” consisting of a quartz slide and a glass coverslip that were both coated with polyethylene glycol (PEG) molecules consisting 0.1% (w/v) biotinylated-PEG except when stated otherwise, and using double-sided tape to create up to five flow-chambers.
# (§6) The single vesicle content mixing assay described in Lai et al. (2014) was used to monitor vesicle-vesicle association, Ca^2+-independent, and Ca^2+-triggered fusion. The surface of the quartz slides was passivated by coating the surface with polyethylene glycol (PEG) molecules which alleviated non-specific binding of vesicles. The same protocol and quality controls (surface coverage and non-specific binding) were used as described previously (Kyoung et al., 2011; Kyoung et al., 2012) except that PEG-SVA (Laysan Bio) instead of mPEG-SCM (Laysan Bio) was used since it has a longer half-life. […]
# airway SNAREs and Syt2 = airway SNAREs and Syt2 (Rattus norvegicus, UniProt P29101); experiment: Single vesicle content mixing assay, airway SNAREs and Syt2 (airway PM and SG vesicles); type: biochemical; conditions: for Ca2+ triggered fusion events / Ca2+ independent fusion events: 10 μM peptide, raw count; for Ca2+ triggered fusion events: 500 μM Ca2+
# airway SNAREs and Syt2, sequence (P29101 whole entry, the tested form may be a part): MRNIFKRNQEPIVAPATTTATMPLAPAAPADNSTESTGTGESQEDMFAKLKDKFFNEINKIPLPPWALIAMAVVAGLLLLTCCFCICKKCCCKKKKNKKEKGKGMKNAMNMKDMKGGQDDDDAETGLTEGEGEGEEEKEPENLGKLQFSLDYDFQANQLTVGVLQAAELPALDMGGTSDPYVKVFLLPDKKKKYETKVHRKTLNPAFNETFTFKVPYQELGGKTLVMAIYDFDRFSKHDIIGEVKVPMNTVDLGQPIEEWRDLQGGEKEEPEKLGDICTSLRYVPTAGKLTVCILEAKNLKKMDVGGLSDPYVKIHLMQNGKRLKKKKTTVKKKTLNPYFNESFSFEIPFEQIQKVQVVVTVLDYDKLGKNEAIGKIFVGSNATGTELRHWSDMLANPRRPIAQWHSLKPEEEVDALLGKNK
# Description: as §1, §2, §3, §4, §5, §6
# neuronal SNAREs and Syt1 [3] = experiment: Ensemble lipid mixing assay, neuronal PM and SV vesicles; type: biochemical; conditions: for effect on ensemble lipid mixing: with or without Ca2+, peptide concentration-dependent
# Description: Vesicle reconstitution. For the ensemble lipid mixing assay, the lipid composition of the SV vesicles was phosphatidylcholine (PC) (46%), phosphatidylethanolamine (PE) (20%), phosphatidylserine (PS) (12%), cholesterol (20%), and 1,1′-dioctadecyl-3,3,3′,3′-tetramethylindodicarbocyanine perchlorate (DiD) (Invitrogen) (2%); for the both neuronal and airway PM vesicles the lipid composition was Brain Total Lipid Extract supplemented 3.5 mol % PIP2, 0.1 mol % biotinylated phosphatidylethanolamine (PE) and 1,1′-dioctadecyl-3,3,3′,3′-tetramethylindocarbocyanine perchlorate (DiI) (Invitrogen). All the lipids are from Avanti Polar Lipids.
# as §3
# Bulk lipid mixing experiments with neuronal synaptic proteins. Protein-reconstituted neuronal PM and SV vesicles were mixed at a molar ratio of 1:1, both at 0.1 mM lipid concentration. Lipid mixing is measured by monitoring the fluorescent emission (670 nm) of the DiD dyes in the SV vesicles by FRET using 530 nm laser light excitation of the DiI dyes in neuronal PM vesicles. The fluorescence intensity was monitored in two channels at 570 nm and 670 nm, respectively. Fluorescence changes were recorded with a Varian Cary Eclipse model fluorescence spectrophotometer using a quartz cell of 100 μl with a 5 mm path length. All measurements were performed at 35° C.
# neuronal SNAREs and Syt1 [4] = experiment: Single vesicle content mixing assay, neuronal SNAREs and Syt1; type: biochemical; conditions: 10 μM peptide, raw count; for Ca2+ triggered fusion events: 500 μM Ca2+
# Description: as §1, §2, §3, §4, §5, §6
Molecule,"helical content, ranking in words [1]",Ca2+ triggered fusion events [2],Ca2+ independent fusion events [2],Ca2+ triggered fusion events (airway SNAREs and Syt2),Ca2+ independent fusion events (airway SNAREs and Syt2),effect on ensemble lipid mixing (neuronal SNAREs and Syt1 [3]),Ca2+ triggered fusion events (neuronal SNAREs and Syt1 [4]),Ca2+ independent fusion events (neuronal SNAREs and Syt1 [4]),"helicity / helical content ([1]; in solution, CD [φ]222 vs model helical decapeptide) [%]",effect on Ca2+-triggered cumulative fusion probability (airway SNAREs and Syt2; up to 10 μM peptide),effect on intrinsic Ca2+-independent fusion probability (airway SNAREs and Syt2; up to 10 μM peptide),effect on Ca2+-triggered ensemble lipid mixing (neuronal SNAREs and Syt1 [3]),effect on Ca2+-independent ensemble lipid mixing (neuronal SNAREs and Syt1 [3]; 10 μM and 100 μM peptide)
"Ac-SKD(S5)GIR(S5)LV(S5)LDE(S5)GEQL-amide (Ac-SKD[S5]GIR[S5]LV[S5]LDE[S5]GEQL-NH2; staple 11-15, 4-8; SMILES CC[C@H](C)[C@@H]1NC(=O)CNC(=O)[C@@](C)(NC(=O)[C@H](CC(=O)O)NC(=O)[C@H](CCCCN)NC(=O)[C@H](CO)NC(C)=O)CCCC=CCCC[C@@](C)(C(=O)N[C@@H](CC(C)C)C(=O)N[C@H](C(=O)N[C@@]2(C)CCCC=CCCC[C@@](C)(C(=O)NCC(=O)N[C@@H](CCC(=O)O)C(=O)N[C@@H](CCC(N)=O)C(=O)N[C@@H](CC(C)C)C(N)=O)NC(=O)[C@H](CCC(=O)O)NC(=O)[C@H](CC(=O)O)NC(=O)[C@H](CC(C)C)NC2=O)C(C)C)NC(=O)[C@H](CCCNC(=N)N)NC1=O) [SP10]",largest helical content,367,252,273,327,substantially inhibited,495,263,,,,,
"EESKDAGIRTLVMLDEQGEQLD [Peptide P0, non-stapled SNAP-25A fragment used as a control, reference compound]",,,,219,113,,591,493,5,no effect,no effect,little effect,little effect
"CC[C@H](C)[C@H](NC(=O)[C@]1(C)CCCC=CCCC[C@](C)(NC(=O)[C@H](CCC(=O)O)NC(=O)[C@H](CCC(=O)O)NC(C)=O)C(=O)N[C@@H](CCCCN)C(=O)N[C@@H](CC(=O)O)C(=O)N[C@@H](C)C(=O)N1)C(=O)N[C@@H](CCCNC(=N)N)C(=O)N[C@@]1(C)CCCC=CCCC[C@@](C)(C(=O)N[C@@H](CC(=O)O)C(=O)N[C@@H](CCC(=O)O)C(=O)N[C@@H](CCC(N)=O)C(=O)N[C@@H](CS)C(N)=O)NC(=O)[C@H](CCSC)NC(=O)[C@H](C(C)C)NC(=O)[C@H](CC(C)C)NC1=O [SP9, Ac-EE(S5)KDA(S5)IR(S5)LVM(S5)DEQC-amide] (Ac-EE[S5]KDA[S5]IR[S5]LVM[S5]DEQC-NH2; staple 3-7, 10-14)",largest helical content; also recorded: highest α-helicity,260,242,250,274,substantially inhibited,272,165,,,,,
"Ac-SKD(S5)GIR(S5)LVMLDE(S5)GEQ(S5)DR-amide (Ac-SKD[S5]GIR[S5]LVMLDE[S5]GEQ[S5]DR-NH2; staple 15-19, 4-8; SMILES CC[C@H](C)[C@@H]1NC(=O)CNC(=O)[C@@](C)(NC(=O)[C@H](CC(=O)O)NC(=O)[C@H](CCCCN)NC(=O)[C@H](CO)NC(C)=O)CCCC=CCCC[C@@](C)(C(=O)N[C@@H](CC(C)C)C(=O)N[C@H](C(=O)N[C@@H](CCSC)C(=O)N[C@@H](CC(C)C)C(=O)N[C@@H](CC(=O)O)C(=O)N[C@@H](CCC(=O)O)C(=O)N[C@@]2(C)CCCC=CCCC[C@@](C)(C(=O)N[C@@H](CC(=O)O)C(=O)N[C@@H](CCCNC(=N)N)C(N)=O)NC(=O)[C@H](CCC(N)=O)NC(=O)[C@H](CCC(=O)O)NC(=O)CNC2=O)C(C)C)NC(=O)[C@H](CCCNC(=N)N)NC1=O) [SP1]",largest helical content,282,226,275,251,substantially inhibited,210,235,,,,,
"Ac-SKDA(S5)IRT(S5)VM(S5)DEQ(S5)EQL-amide (Ac-SKDA[S5]IRT[S5]VM[S5]DEQ[S5]EQL-NH2; staple 12-16, 5-9; SMILES CC[C@H](C)[C@@H]1NC(=O)[C@@](C)(NC(=O)[C@H](C)NC(=O)[C@H](CC(=O)O)NC(=O)[C@H](CCCCN)NC(=O)[C@H](CO)NC(C)=O)CCCC=CCCC[C@@](C)(C(=O)N[C@H](C(=O)N[C@@H](CCSC)C(=O)N[C@@]2(C)CCCC=CCCC[C@@](C)(C(=O)N[C@@H](CCC(=O)O)C(=O)N[C@@H](CCC(N)=O)C(=O)N[C@@H](CC(C)C)C(N)=O)NC(=O)[C@H](CCC(N)=O)NC(=O)[C@H](CCC(=O)O)NC(=O)[C@H](CC(=O)O)NC2=O)C(C)C)NC(=O)[C@H]([C@@H](C)O)NC(=O)[C@H](CCCNC(=N)N)NC1=O) [SP4]",largest helical content,248,222,231,237,substantially inhibited,210,261,,,,,

# — patent US20250163122A1, “COMPOSITIONS AND METHODS FOR TREATING AIRWAY MUCUS DYSFUNCTION” (BOARD OF REGENTS, THE UNIVERSITY OF TEXAS SYSTEM, priority 2022, published 2025)
